Reference: patent US8268854B2, “Aza-beta-carbolines and methods of using same” (The UWM Research Foundation, Inc., priority 2008, dated 2012)
Where a name gives a salt, the structure may show the parent alone.

Columns and labels:
Experiment in all cases: PDSP primary radioligand binding assay
Dopamine receptor D3 = biological target: T1, Dopamine receptor D3 (Rattus norvegicus, UniProt P19020); conditions: compound 10 μM; for inhibition at 10 µM: n=4, read-out: mean percentage inhibition, Dopamine receptor D3
T1 construct: expressed in transfected cells
Protocol: (§1) Primary and secondary radioligand binding assays are performed. In general, the primary assay is run at very high ligand (compound) concentration as a broad screen to determine whether a compound binds to a particular receptor. If greater than 50% inhibition at 10 μM (high concentration of compound) at a particular receptor is determined, a secondary assay is performed on that receptor. Data from the secondary assay is the binding affinity (Ki value).
(§2) A solution of the compound to be tested is prepared as a 1 mg/ml stock in Standard Binding Buffer or dimethyl sulfoxide (DMSO) according to its solubility. A similar stock of a reference compound (positive control) is also prepared.
(§3) Radioligand (radioligands are presented in Table 39) is diluted to five times the assay concentration (assay concentrations are presented in Table 39) in Standard Binding Buffer. Typically, the assay concentration of radioligand is a value between one half the KD and the KD of a particular radioligand at its target. Aliquots (50 μL) of radioligand are dispensed into the wells of a 96-well plate (see FIG. 11) containing 100 μL of Standard Binding Buffer (Table 40). Then, duplicate 50 μL aliquots of the test and reference compound dilutions are added (see FIG. 11). According to FIG. 11, increasing concentrations (from left to right) of reference or test compound (diluted in buffer) are added (50 μL aliquots, in duplicate) from 5× stock solutions to wells containing 50 μL of 5× radioligand (fixed concentration, prepared in buffer) and 100 μL of buffer. Finally, 50 μL of receptor-containing membrane homogenate (5× suspension in buffer) are added to achieve a final assay volume of 250 μL. Final concentrations of reference or test compound are listed above the columns in FIG. 11.
(§4) Finally, crude membrane fractions of cells expressing recombinant target (prepared from 10 cm plates by harvesting phosphate buffered saline (PBS)-rinsed monolayers, resuspending and lysing in chilled, hypotonic 50 mM Tris-HCl, pH 7.4, centrifuging at 20,000×g, decanting the supernatant and storing at −80° C.; typically, one 10 cm plate provides sufficient material for 24 wells) are resuspended in 3 mL of chilled Standard Binding Buffer and homogenized by several passages through a 26 gauge needle, and then 50 μL are dispensed into each well.
(§5) The 250 μL reactions are incubated at room temperature and shielded from light (to prevent photolysis of light-sensitive ligands) for 1.5 hours, then harvested by rapid filtration onto Whatman GF/B glass fiber filters pre-soaked with 0.3% polyethyleneimine using a 96-well Brandel harvester. Four rapid 500 μL washes are performed with chilled Standard Binding Buffer to reduce non-specific binding. Filters are placed in 6 mL scintillation tubes and allowed to dry overnight. The next day, 4 mL of EcoScint scintillation cocktail (National Diagnostics) are added to each tube. The tubes are capped, labeled, and counted by liquid scintillation counting. For higher throughput assays, bound radioactivity is harvested onto 0.3% polyethyleneimine-treated, 96-well filter mats using a 96-well Filtermate harvester. The filter mats are dried, then scintillant is melted onto the filters, and the radioactivity retained on the filters is counted in a Microbeta scintillation counter.
(§6) Raw data (dpm) representing total radioligand binding (i.e., specific+non-specific binding) are plotted as a function of the logarithm of the molar concentration of the competitor (i.e., test or reference compound). […]

Histamine receptor H2 = biological target: T2, Histamine receptor H2 (Homo sapiens, UniProt P25021); conditions: compound 10 μM; for mean percentage inhibition, Histamine receptor H2: n=4, hydrochloride, 10 µM
T2 construct: expressed in transfected cells
Protocol: as §1, §2, §3, §4, §5, §6

Dopamine receptor D4 = biological target: T3, Dopamine receptor D4 (Homo sapiens, UniProt P21917); conditions: compound 10 μM, n=4, read-out: mean percentage inhibition, Dopamine receptor D4
T3 construct: expressed in transfected cells
T3 sequence (P21917 1-419): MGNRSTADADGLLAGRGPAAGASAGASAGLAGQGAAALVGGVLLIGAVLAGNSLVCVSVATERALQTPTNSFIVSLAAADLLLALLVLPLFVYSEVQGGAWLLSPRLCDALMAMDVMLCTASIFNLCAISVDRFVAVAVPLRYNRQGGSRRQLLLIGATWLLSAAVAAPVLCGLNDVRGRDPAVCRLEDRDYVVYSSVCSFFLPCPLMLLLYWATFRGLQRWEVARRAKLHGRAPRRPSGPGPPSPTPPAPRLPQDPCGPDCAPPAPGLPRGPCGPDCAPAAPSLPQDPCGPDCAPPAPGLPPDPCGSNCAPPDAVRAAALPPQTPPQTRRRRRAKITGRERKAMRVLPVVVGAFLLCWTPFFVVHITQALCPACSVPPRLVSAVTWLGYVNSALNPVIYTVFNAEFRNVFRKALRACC
Protocol: as §1, §2, §3, §4, §5, §6

Dopamine receptor D2 = biological target: T4, Dopamine receptor D2 (Homo sapiens, UniProt P14416); conditions: compound 10 μM; for inhibition at 10 µM: n=4, read-out: mean percentage inhibition, Dopamine receptor D2
T4 construct: expressed in transfected cells
Protocol: as §1, §2, §3, §4, §5, §6

Dopamine D5 = biological target: T5, Dopamine D5 (Homo sapiens, UniProt P21918); conditions: compound 10 μM
T5 construct: expressed in transfected cells
Protocol: as §1, §2, §3, §4, §5, §6

T2 sequence (P25021 whole entry): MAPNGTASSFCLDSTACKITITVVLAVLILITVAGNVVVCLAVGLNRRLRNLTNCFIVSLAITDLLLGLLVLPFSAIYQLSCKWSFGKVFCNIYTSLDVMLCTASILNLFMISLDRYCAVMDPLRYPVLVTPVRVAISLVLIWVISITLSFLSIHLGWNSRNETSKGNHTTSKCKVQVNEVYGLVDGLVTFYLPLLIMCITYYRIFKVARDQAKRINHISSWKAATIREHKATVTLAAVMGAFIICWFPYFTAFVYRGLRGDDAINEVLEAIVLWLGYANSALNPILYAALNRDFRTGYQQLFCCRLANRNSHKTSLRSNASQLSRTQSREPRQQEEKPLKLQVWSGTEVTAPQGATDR
T1 sequence (P19020 whole entry): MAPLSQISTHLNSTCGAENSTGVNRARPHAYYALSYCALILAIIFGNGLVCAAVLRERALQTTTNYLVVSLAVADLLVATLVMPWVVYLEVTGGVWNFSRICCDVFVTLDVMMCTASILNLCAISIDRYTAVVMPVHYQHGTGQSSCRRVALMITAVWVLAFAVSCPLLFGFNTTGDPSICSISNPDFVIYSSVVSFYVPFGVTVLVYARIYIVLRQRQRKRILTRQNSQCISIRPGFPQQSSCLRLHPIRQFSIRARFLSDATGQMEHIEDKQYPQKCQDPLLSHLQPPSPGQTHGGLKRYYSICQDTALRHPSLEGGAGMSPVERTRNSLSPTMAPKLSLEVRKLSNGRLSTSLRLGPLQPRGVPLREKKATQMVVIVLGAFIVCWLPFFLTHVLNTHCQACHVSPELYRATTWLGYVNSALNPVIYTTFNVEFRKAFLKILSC
T4 sequence (P14416 whole entry): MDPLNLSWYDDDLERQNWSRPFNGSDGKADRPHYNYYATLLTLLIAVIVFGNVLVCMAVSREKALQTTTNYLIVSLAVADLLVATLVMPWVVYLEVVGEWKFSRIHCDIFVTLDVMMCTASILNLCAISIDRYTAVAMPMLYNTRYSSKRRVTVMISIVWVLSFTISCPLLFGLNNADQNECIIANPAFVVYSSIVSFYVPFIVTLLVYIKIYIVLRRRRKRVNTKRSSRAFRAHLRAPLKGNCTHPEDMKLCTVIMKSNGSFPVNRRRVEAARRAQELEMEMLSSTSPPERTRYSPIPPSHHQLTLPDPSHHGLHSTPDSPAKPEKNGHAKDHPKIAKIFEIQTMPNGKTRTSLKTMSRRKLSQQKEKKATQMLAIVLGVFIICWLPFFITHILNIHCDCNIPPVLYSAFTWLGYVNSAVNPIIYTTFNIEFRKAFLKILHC
T5 sequence (P21918 whole entry): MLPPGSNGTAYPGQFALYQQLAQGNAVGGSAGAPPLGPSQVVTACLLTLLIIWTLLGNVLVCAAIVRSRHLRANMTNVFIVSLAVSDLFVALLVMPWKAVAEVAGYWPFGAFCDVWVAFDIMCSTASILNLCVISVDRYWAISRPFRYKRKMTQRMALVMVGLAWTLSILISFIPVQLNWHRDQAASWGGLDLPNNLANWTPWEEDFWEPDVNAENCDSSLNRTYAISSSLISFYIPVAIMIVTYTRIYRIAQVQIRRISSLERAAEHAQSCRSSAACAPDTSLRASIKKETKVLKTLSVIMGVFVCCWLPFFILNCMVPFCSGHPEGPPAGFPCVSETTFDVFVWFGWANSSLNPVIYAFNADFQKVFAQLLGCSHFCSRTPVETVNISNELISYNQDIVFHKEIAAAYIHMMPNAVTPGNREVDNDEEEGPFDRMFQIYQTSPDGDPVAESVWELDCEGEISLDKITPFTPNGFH

SMILES | mean percentage inhibition, Dopamine receptor D3 (Dopamine receptor D3; n=4, hydrochloride, 10 µM) | inhibition at 10 µM (Dopamine receptor D3) | mean percentage inhibition, Histamine receptor H2 (Histamine receptor H2) | inhibition at 10 µM (Histamine receptor H2; n=4, read-out: mean percentage inhibition, Histamine receptor H2) | inhibition at 10 µM (Dopamine receptor D4) | inhibition at 10 µM (Dopamine receptor D2) | binding at 10 μM, Dopamine D5 (Dopamine D5) | mean percentage inhibition, Dopamine receptor D2 (Dopamine receptor D2; n=4, hydrochloride, 10 µM)
CCCOc1cc2c(cn1)[nH]c1ccncc12 [Compound 2, 8-Propoxypyridino[4′,3′-5,4]pyrrolo[3,2-c]pyridine hydrochloride] | 31.8% | < 50% | 31.4% | < 50% | > 50% | > 50% | < 50% | 
CCCOc1cc2c(cn1)[nH]c1cnccc12 [Compound 4, 3-Propoxy pyridino[4′,3′-4,5]pyrrolo[2,3-c]pyridine hydrochloride] |  | 24.1% | 26.8% |  | -18.1% | > 50% | < 50% | 50%
